We go through 17 molecules from patent US20160376237A1, “NOVEL PYRIDINE DERIVATIVES” (Hoffmann-La Roche Inc., priority 2014, published 2016).

Usually EC50 stands for the concentration that produces a half-maximal response.

For one assay, the target named is T1, human CB2 receptors (Homo sapiens, UniProt P34972).
T1 construct: expressed in transfected cells; host or cells: CHO cells
T1 sequence (P34972 whole entry): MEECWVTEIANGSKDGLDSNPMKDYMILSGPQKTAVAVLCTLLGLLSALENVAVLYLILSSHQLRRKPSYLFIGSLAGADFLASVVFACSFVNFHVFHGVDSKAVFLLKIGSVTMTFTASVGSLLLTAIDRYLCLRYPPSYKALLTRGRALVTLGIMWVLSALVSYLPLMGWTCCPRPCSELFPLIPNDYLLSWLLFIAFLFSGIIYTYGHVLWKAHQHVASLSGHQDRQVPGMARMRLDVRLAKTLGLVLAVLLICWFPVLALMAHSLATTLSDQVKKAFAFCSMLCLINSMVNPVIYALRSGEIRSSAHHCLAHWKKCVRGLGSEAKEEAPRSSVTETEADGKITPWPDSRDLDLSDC
In words: cAMP assay. The assay is classed as cell-based.
Details: not given
How it is done: CHO cells expressing human CB1 or CB2 receptors are seeded 17-24 hours prior to the experiment 50.000 cells per well in a black 96 well plate with flat clear bottom (Corning Costar #3904) in DMEM (Invitrogen No. 31331), 1×HT supplement, with 10% fetal calf serum and incubated at 5% CO2 and 37° C. in a humidified incubator. The growth medium was exchanged with Krebs Ringer Bicarbonate buffer with 1 mM IBMX and incubated at 30° C. for 30 min. Compounds were added to a final assay volume of 100 μl and incubated for 30 min at 30° C. Using the cAMP-Nano-TRF detection kit the assay (Roche Diagnostics) was stopped by the addition of 50 μl lysis reagent (Tris, NaCl, 1.5% Triton X100, 2.5% NP40, 10% NaN3) and 50 μl detection solutions ([…] mAb Alexa700-cAMP 1:[…] Ruthenium-2-AHA-cAMP) and shaken for 2 h at room temperature. The time-resolved energy transfer is measured by a TRF reader (Evotec Technologies GmbH), equipped with a ND:YAG laser as excitation source. The plate is measured twice with the excitation at 355 nm and at the emission with a delay of 100 ns and a gate of 100 ns, total exposure time 10 s at 730 (bandwidth 30 nm) or 645 nm (bandwidth 75 nm), respectively. The FRET signal is calculated as follows: FRET=T730-Alexa730-P(T645-B645) with P=Ru730-B730/Ru645-B645, where T730 is the test well measured at 730 nM, T645 is the test well measured at 645 nm, B730 and B645 are the buffer controls at 730 nm and 645 nm, respectively. cAMP content is determined from the function of a standard curve spanning from […] to 0.13 nM cAMP.
EC50 values were determined using Activity Base analysis (ID Business Solution, Limited).
For orientation: cAMP levels reflect the balance of adenylyl cyclase and phosphodiesterase activity.
`CCC(CC)(NC(=O)c1ccc(N2CC(OC)C2)c(OCC2CC2)n1)C(=O)N1CC(F)C1` [Example 26, 6-(Cyclopropylmethoxy)-N-[3-(3-fluoroazetidine-1-carbonyl)pentan-3-yl]-5-(3-methoxyazetidin-1-yl)pyridine-2-carboxamide]: a half-maximal response (EC50) required 0.00458 µM.

Take `NC(=O)[C@@H]1CC(F)(F)CN1C(=O)c1ccc(N2CCC(O)(C(F)(F)F)C2)c(OCC2CC2)n1` (stereo partly drawn) [Example 28, (2S)-1-[6-(Cyclopropylmethoxy)-5-[3-hydroxy-3-(trifluoromethyl)pyrrolidin-1-yl]pyridine-2-carbonyl]-4,4-difluoropyrrolidine-2-carboxamide]: the EC50 worked out at 1.68 µM.

With `CC(C)C[C@H](NC(=O)c1ccc(N2CCC(O)(C(F)(F)F)C2)c(OCC2CC2)n1)C(N)=O` (stereo partly drawn) [Example 29, N-[(2S)-1-Amino-4-methyl-1-oxopentan-2-yl]-6-(cyclopropylmethoxy)-5-[3-hydroxy-3-(trifluoromethyl)pyrrolidin-1-yl]pyridine-2-carboxamide], the EC50 is 1.89 µM.

As for `CC(C)C[C@H](NC(=O)c1ccc(N2CCC3(C2)CC3(F)F)c(OCC2CC2)n1)C(N)=O` (stereo partly drawn) [Example 30, N-[(2S)-1-Amino-4-methyl-1-oxopentan-2-yl]-6-(cyclopropylmethoxy)-5-(2,2-difluoro-5-azaspiro[2.4]heptan-5-yl)pyridine-2-carboxamide], the EC50 worked out at 0.0381 µM.

With `NC(=O)[C@@H]1CC(F)(F)CN1C(=O)c1ccc(N2CCC3(C2)CC3(F)F)c(OCC2CC2)n1` (stereo partly drawn) [Example 31, (2S)-1-[6-(Cyclopropylmethoxy)-5-(2,2-difluoro-5-azaspiro[2.4]heptan-5-yl)pyridine-2-carbonyl]-4,4-difluoropyrrolidine-2-carboxamide], it took 0.019 µM to reach a half-maximal effect (EC50).

For the molecule `NC(=O)CC1(NC(=O)c2ccc(N3CCC4(C3)CC4(F)F)c(OCC3CC3)n2)COC1` (centres unmarked) [Example 32, N-[3-(2-Amino-2-oxoethyl)oxetan-3-yl]-6-(cyclopropylmethoxy)-5-(2,2-difluoro-5-azaspiro[2.4]heptan-5-yl)pyridine-2-carboxamide], a half-maximal response (EC50) required 0.0602 µM.

In the case of `CC(C)C[C@H](NC(=O)c1ccc(N2CC(C)(F)C2)c(OCC2CC2)n1)C(N)=O` [Example 33, N-[(2S)-1-Amino-4-methyl-1-oxopentan-2-yl]-6-(cyclopropylmethoxy)-5-(3-fluoro-3-methylazetidin-1-yl)pyridine-2-carboxamide], the response was half-maximal at 0.0196 µM (EC50).

`CC1(F)CN(c2ccc(C(=O)N3CC(F)(F)C[C@H]3C(N)=O)nc2OCC2CC2)C1` [Example 34, (2S)-1-[6-(Cyclopropylmethoxy)-5-(3-fluoro-3-methylazetidin-1-yl)pyridine-2-carbonyl]-4,4-difluoropyrrolidine-2-carboxamide] had an EC50 of 0.0114 µM.

Consider `CC1(F)CN(c2ccc(C(=O)NC3(CC(N)=O)COC3)nc2OCC2CC2)C1` [Example 35, N-[3-(2-Amino-2-oxoethyl)oxetan-3-yl]-6-(cyclopropylmethoxy)-5-(3-fluoro-3-methylazetidin-1-yl)pyridine-2-carboxamide], for which the EC50 was determined as 0.213 µM.

Consider `CC(C)C[C@H](NC(=O)c1ccc(N2CC(F)(C3CC3)C2)c(OCC2CC2)n1)C(N)=O` [Example 36, N-[(2S)-1-Amino-4-methyl-1-oxopentan-2-yl]-5-(3-cyclopropyl-3-fluoroazetidin-1-yl)-6-(cyclopropylmethoxy)pyridine-2-carboxamide], for which the EC50 came out at 0.02 µM.

Molecule `NC(=O)[C@@H]1CC(F)(F)CN1C(=O)c1ccc(N2CC(F)(C3CC3)C2)c(OCC2CC2)n1` [Example 37, (2S)-1-[5-(3-Cyclopropyl-3-fluoroazetidin-1-yl)-6-(cyclopropylmethoxy)pyridine-2-carbonyl]-4,4-difluoropyrrolidine-2-carboxamide] returned a concentration for a half-maximal effect (EC50) of 0.0193 µM.

`NC(=O)CC1(NC(=O)c2ccc(N3CC(F)(C4CC4)C3)c(OCC3CC3)n2)COC1` [Example 38, N-[3-(2-Amino-2-oxoethyl)oxetan-3-yl]-5-(3-cyclopropyl-3-fluoroazetidin-1-yl)-6-(cyclopropylmethoxy)pyridine-2-carboxamide] showed a concentration giving a half-maximal response (EC50) of 0.0483 µM.

`NC(=O)[C@@H]1CC(F)(F)CN1C(=O)c1ccc(OCC2CC2)c(-c2ccc(Cl)cc2)n1` [Example 39, (2S)-1-[6-(4-Chlorophenyl)-5-(cyclopropylmethoxy)pyridine-2-carbonyl]-4,4-difluoropyrrolidine-2-carboxamide] displayed a 50% effective concentration (EC50) of 0.018 µM.

Molecule `Cc1nc(C(C)(C)NC(=O)c2ccc(OCC3CC3)c(-c3ccc(Cl)cc3)n2)no1` [Example 40, 6-(4-Chlorophenyl)-5-(cyclopropylmethoxy)-N-[2-(5-methyl-1,2,4-oxadiazol-3-yl)propan-2-yl]pyridine-2-carboxamide] gave an EC50 of 0.0169 µM.

Turning to `CCC(CC)(NC(=O)c1ccc(N2CC(F)(C3CC3)C2)c(OCC2CC2)n1)C(=O)NCCCF` [Example 41, 5-(3-Cyclopropyl-3-fluoroazetidin-1-yl)-6-(cyclopropylmethoxy)-N-[3-(3-fluoropropylcarbamoyl)pentan-3-yl]pyridine-2-carboxamide], the response was half-maximal at 0.669 µM (EC50).

Regarding `CC(C)C[C@H](NC(=O)c1ccc(OCC2CC2)c(-c2ccc(Cl)cc2)n1)C(N)=O` [Example 42, N-[(2S)-1-Amino-4-methyl-1-oxopentan-2-yl]-6-(4-chlorophenyl)-5-(cyclopropylmethoxy)pyridine-2-carboxamide], the concentration giving a half-maximal response (EC50) is 0.00444 µM.

Staying with this assay, now noted: CHO cells expressing human CB2 receptors; read-out: cAMP assay human CB2 EC50.
`CCC(CC)(NC(=O)c1ccc(N2CC(OC)C2)c(OCC2CC2)n1)C(=O)NCCCF` [Example 27, 6-(Cyclopropylmethoxy)-N-[3-(3-fluoropropylcarbamoyl)pentan-3-yl]-5-(3-methoxyazetidin-1-yl)pyridine-2-carboxamide]: the 50% effective concentration (EC50) came to 0.444 µM.
